Results on two compounds are retold here after patent publication US20080069896A1, “Antitumor Composition” (Kabushiki Kaisha Sangi, priority 2004, published 2008).

One series has as its system A431. Description: MTT assay, human cancer cells A431. The class given is cell-based. Conditions: for IC50 of human cancer cells by MTT assay: A431, squamous cell cancer, HAP agents particle diameter 0.1 μm or less; for Platinum content calculated from IC50 of human cancer cells by MTT assay: A431, IC50 converted to platinum concentration. The procedure: (§1) Effect of platinum tetrachloride/hydroxyapatite (PtCl4/HAP) and hexachloroplatinate/hydroxyapatite (H2PtCl6/HAP) against human cancer cells (MTT assay)
(§2) According to “in vitro toxicity test using MTT”, which is an ordinary test method, MTT assay was performed for PtCl4/HAP (particle diameter 0.1 μm or less), and H2PtCl6/HAP (particle diameter 0.1 μm or less) by using 19 types of human cancer cells. PtCl4/HAP and H2PtCl6/HAP were used by adjusting the final dispersion concentration to 1.0% in a dispersion liquid each containing 10% platinum as a theoretical value. For comparison, MTT assay was performed for PtCl4 and CDDP. PtCl4 was dissolved at an adequate dose, and then used after serial dilution with PBS (−). For CDDP, injection liquid from Malco was used.

The test system of a further series is HSC4. Description: MTT assay, human cancer cells HSC4. Type of series: cell-based. Conditions: for IC50 of human cancer cells by MTT assay: HSC4, oral cancer, HAP agents particle diameter 0.1 μm or less; for Platinum content calculated from IC50 of human cancer cells by MTT assay: HSC4, IC50 converted to platinum concentration. The procedure:
as §1, §2

In the next series the test system is KB. Description: MTT assay, human cancer cells KB. Conditions: for Platinum content calculated from IC50 of human cancer cells by MTT assay: IC50 converted to platinum concentration; for IC50 of human cancer cells by MTT assay: oral cancer, HAP agents particle diameter 0.1 μm or less. Type of series: cell-based. The procedure: as §1, §2
The next series has as its system YES5. Description: MTT assay, human cancer cells YES5. Type of series: cell-based. Conditions: for IC50 of human cancer cells by MTT assay: YES5, esophageal cancer, HAP agents particle diameter 0.1 μm or less; for Platinum content calculated from IC50 of human cancer cells by MTT assay: YES5, IC50 converted to platinum concentration. The procedure:
as §1, §2

The next series deals with Kato-III. Description: MTT assay, human cancer cells Kato-III. The class given is cell-based. Conditions: for Platinum content calculated from IC50 of human cancer cells by MTT assay: KATO-III, IC50 converted to platinum concentration; for IC50 of human cancer cells by MTT assay: Kato-III, gastric cancer, HAP agents particle diameter 0.1 μm or less. The procedure:
as §1, §2

The test system of a further series is NUGC-4. Description: MTT assay, human cancer cells NUGC-4. The class given is cell-based. Conditions: for IC50 of human cancer cells by MTT assay: NUGC-4, gastric cancer, HAP agents particle diameter 0.1 μm or less; for Platinum content calculated from IC50 of human cancer cells by MTT assay: NUGC-4, IC50 converted to platinum concentration. The procedure:
as §1, §2

The test system of series [1] is fibroblasts during resting stage. Briefly: Toxicity test during resting stage (MTT assay). The class given is cell-based. Conditions: rat fibroblasts, confluent, 48 hours; for IC50 in the toxicity test during resting stage: HAP agents particle diameter 0.1 μm or less. An excerpt:
(§3) A male mature rat was deeply anesthetized with ether, and disinfected by wiping carefully its tail with alcohol. The tail end part was cut by several centimeters, and the skin was removed from coccyx. Tendon was attached to the coccyx, and by culturing the same, fibroblasts can be recovered. Coccyx part was further cut finely with a sterilized pair of scissors, and adhered on a sterilized plastic plate with the cut surface down. After resting the plate for a while, DMEM supplemented with 10% FBS was added thereto. In approximately one week, fibroblasts germinated from the coccyx part, and proliferated in the plate. The fibroblasts collected from rat tail end were used for the following experiment.
Rat fibroblasts during proliferating stage were inoculated 2 times more than usual to a 96-well plate, that 100 μl of cell suspension at 2×10^4 cells/ml. Subsequently, it was cultured for 72 hours, in order to make cells in a confluent condition. After confirming with an inverted microscope that cells were in a complete confluent condition in each well, medium of each well was changed. Then, serially diluted test samples were added to the wells by aliquot of 10 μl, by the above-mentioned method. Culture was continued 48 hours after the addition, and subsequently, MTT assay was performed for PtCl4/HAP (particle diameter 0.1 μm or less), and H2PtCl6/HAP (particle diameter 0.1 μm or less), with similar procedures to those described in the above “toxicity test of PtCl4/HAP and H2PtCl6/HAP during proliferation stage”.

The subject of series [2] is fibroblasts at confluency. Description: Microscopic observation of toxicity effect during resting stage. The class given is cell-based, rat. Conditions: amount corresponding to 2 ppm of platinum content, fibroblasts at confluency, cultured for 48 hours.
Source text: as §3
From the result of Example 7, 2 ppm which is a value of platinum content that kills 50% of fibroblasts in CDDP during resting stage was set as a standard. Then, CDDP, PtCl4/HAP, PtCl4 and HAP dispersion liquids in an amount corresponding to 2 ppm of platinum content, were added to the fibroblasts at confluency in a medium, and cultured for 48 hours.

For the compound `[NH2][Pt]([NH2])([Cl])[Cl]` [CDDP, cisplatin], the “IC50 of human cancer cells by MTT assay” value is listed as 5.7 ppm in the series with A431; 4.5 ppm with HSC4; 6.3 ppm with KB; 10.0 ppm in the series with YES5; 2.7 ppm in the series with Kato-III; 15.6 ppm in the series with NUGC-4. The “Platinum content calculated from IC50 of human cancer cells by MTT assay” value in the series on A431 was 3.7 ppm; with HSC4, 2.9 ppm; with KB, 4.1 ppm; with YES5, 6.5 ppm; in the series on Kato-III, 1.8 ppm; in the series with NUGC-4, 10.1 ppm. Moreover, the “Net Pt: platinum content wherein IC50 is converted to platinum concentration, resting stage” value in series [1] was found to be 1.9 ppm. Moreover, the “IC50 in the toxicity test during resting stage” value in series [1] is on record as 2.9 ppm. Further, the “Microscopic observation of cell form of cultured fibroblasts” value in series [2] is given as “most of the cells had a round form”.

On to `[Cl][Pt]([Cl])([Cl])[Cl]` [PtCl4, platinum tetrachloride], for which the “IC50 of human cancer cells by MTT assay” value in the series on A431 is 9.5 ppm; in the series on HSC4 it was 5.7 ppm; with KB, 15.0 ppm; in the series on YES5 it was 20.1 ppm; in the series with Kato-III, 5.8 ppm; in the series with NUGC-4, 7.7 ppm. Also, the “Platinum content calculated from IC50 of human cancer cells by MTT assay” value with A431 is reported as 5.5 ppm; in the series with HSC4, 3.3 ppm; in the series with KB, 8.7 ppm; in the series on YES5, 11.6 ppm; in the series on Kato-III, 3.4 ppm; in the series with NUGC-4, 4.5 ppm. Besides, the “Net Pt: platinum content wherein IC50 is converted to platinum concentration, resting stage” value in series [1] amounted to 13.8 ppm. In series [1], the “IC50 in the toxicity test during resting stage” value is recorded as 23.8 ppm. Besides, the “Microscopic observation of cell form of cultured fibroblasts” value in series [2] is given as “many cells wherein spindle form was deformed, or having a round form, were observed”.
